Test results taken from article PMC6152131, “Pharmacokinetic Study of Biotransformation Products from an Anxiolytic Fraction of Tilia americana” (Molecules : A Journal of Synthetic Chemistry and Natural …, 2017).

Tests used:
[1] = Pharmacokinetic analysis, two-compartment model (PKSolver); assay type: in vivo, ICR mice
Experimental: The data shown in Table 2 were applied to the program PKSolver. After a single oral administration of 200 mg/kg of the anxiolitic fraction of T. americana, the behavior of the concentration-time data allowed us to determine the main pharmacokinetic parameters under a two-compartment model (Table 3), and the same program provided the graphical behavior of the variables and the adjustment to the two-compartment model.
To evaluate the suitability of the assay for the pharmacokinetic studies, 200 mg/kg of the active fraction was orally administered to the animals. Ten animals were used in each group at different times (0, 5, 10, 15, 30, 60, 120, 240, 480, 720, and 1440 min). Pharmacokinetic calculations were performed using the observed data. All data was subsequently processed using the PKSolver add-in program for Microsoft Excel written in Visual Basic for Applications. All values obtained were expressed in mean ± standard deviation.
For the pharmacokinetic assay, the selection was made either from a one-compartment or a two-compartment model, with the use of both the Akaike information criterion (AIC) and the Schwarz criterion (SC). Using these two criteria, one can select which model is more suited to being adjusted, to the point where it reaches the lowest values of the AIC or SC criteria, which means that the chosen model is more parsimonious (less parameters required) and best fits the data (low error prediction).

[2] = Stability of flavonoids and biotransformation products in mouse plasma under different handling conditions; assay type: in vitro ADME, mice; conditions: for Accuracy Bias 0 h / Observed Conc. 0 h / Accuracy Bias 8 h / Observed Conc. 8 h / Accuracy Bias 24 h / Observed Conc. 24 h: room temperature (25 °C); for Observed Conc. 0 h / Observed Conc. 8 h / Observed Conc. 24 h / Observed Conc. Autosampler (4 °C; 8 h) / Observed Conc. Long-term (−70 °C; 1 month): n = 6; for Accuracy Bias Autosampler (4 °C; 8 h) / Accuracy Bias Long-term (−70°C; 1 month) / Observed Conc. Autosampler (4 °C; 8 h) / Observed Conc. Long-term (−70 °C; 1 month): storage stability
Procedure, shortened: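 Mouse plasma QC samples containing the flavonoids and their biotransformation products were tested for stability across storage and handling conditions, including long-term, autosampler and bench-top tests. Samples were extracted with methanol, filtered, and analyzed by HPLC on an RP-18e column with acetonitrile–water (55:45) at 1 mL/min and detection at λ = 220 nm. Results were compared against fresh QC samples; stability required deviation below 15%.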

[3] = Plasma concentration after a single oral dose of the anxiolytic fraction (HPLC); assay type: in vivo, ICR mice; conditions: mouse, plasma, ICR mice, n = 10
Procedure, shortened: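 Animals dosed orally with 200 mg/kg of active fraction; retro-orbital blood taken from separate groups of ten at 0–1440 min. Lyophilized plasma extracted in methanol and analysed by RP-18 HPLC with diode-array detection at 220 nm against a calibration curve; PK parameters from observed data, mean ± SD.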

[4] = mouse, oral 200 mg/kg anxiolytic fraction, ICR mice plasma, two-compartment model
[5] = oral 200 mg/kg anxiolytic fraction, ICR mice plasma, two-compartment model
[6] = oral 200 mg/kg anxiolytic fraction, ICR mice plasma, two-compartment model, n = 10
[7] = high nominal conc. (7.00; 44.37; 4.50; 31.25 µg/mL)
[8] = low nominal conc. (1.75; 11.02; 1.12; 1.95 µg/mL)
[9] = medium nominal conc. (3.50; 22.18; 2.24; 7.81 µg/mL)

## O=C(O)Cc1cccc(O)c1 [m-HPAA, meta-hydroxyphenylacetic acid]
[1]; mouse, in vivo
  ka smaller than the ka of DOPAC: 79%
[1]; [4]
  AUC(0-inf): 124000 ng·h/mL
  Cmax: 5760 ng/mL
  Tmax: 0.235 h
[1]; mouse, oral 200 mg/kg anxiolytic fraction, ICR mice plasma, two-compartment model, read-out: AUC0→1440 (converted)
  AUC(0-t): 61400 ng·h/mL
[1]; mouse, oral 200 mg/kg anxiolytic fraction, ICR mice plasma, two-compartment model, read-out: MRT (mean residence time) (converted)
  MRT: 35.4 h
[1]; mouse, oral 200 mg/kg anxiolytic fraction, ICR mice plasma, two-compartment model, read-out: k10 (apparent first-order elimination rate constant from the central compartment) (converted)
  k el: 1.5e-05 s⁻¹
[1]; mouse, oral 200 mg/kg anxiolytic fraction, ICR mice plasma, two-compartment model, read-out: t1/2β
  half-life: 25 h
[1]; [5]
  CL/F (apparent clearance): 0.026 (mg/Kg)/(μg/mL)/min
  V/F (apparent volume of distribution): 30.45 (mg/Kg)/(µg/mL)
  k12 (transfer rate constant central to peripheral compartment): 0.009 min⁻¹
  k21 (transfer rate constant peripheral to central compartment): 0.01 min⁻¹
  ka (apparent first-order absorption rate constant): 0.24 min⁻¹
  t1/2ka (absorption half time): 2.84 min
  t1/2α: 0.5847 h
  α: 0.02 min⁻¹
  β: 0.0005 min⁻¹
[1]; [6]
  A (plasma concentration coefficient, central compartment): 3.49 µg/mL
  B (plasma concentration coefficient, peripheral compartment): 3.36 µg/mL
[1]; two-compartment model
  index: relation between rate constants of k12 with respect to k21: 0.9
[2]; high nominal conc.
  Accuracy Bias 0 h: 1.88%
  Accuracy Bias 8 h: 0.90%
  Accuracy Bias 24 h: 0.30%
  Accuracy Bias Autosampler (4 °C; 8 h): 2.73%
  Accuracy Bias Long-term (−70°C; 1 month): 2.23%
[2]; high nominal conc. (rutin 7.00; quercetin glucoside, quercitrin, tiliroside 44.37; kaempferol 4.50; m-HPAA, p-HPAA, DOPAC 31.25 µg/mL)
  Observed Conc. 0 h: 31.40 ± 0.10 µg/mL
[2]; low nominal conc.
  Accuracy Bias 0 h: 0.47%
  Accuracy Bias 8 h: 2.23%
  Accuracy Bias 24 h: 2.73%
  Accuracy Bias Autosampler (4 °C; 8 h): 0.09%
  Accuracy Bias Long-term (−70°C; 1 month): 0.90%
[2]; low nominal conc. (rutin 1.75; quercetin glucoside, quercitrin, tiliroside 11.02; kaempferol 1.12; m-HPAA, p-HPAA, DOPAC 1.95 µg/mL)
  Observed Conc. 0 h: 1.91 ± 0.2 µg/mL
[2]; medium nominal conc.
  Accuracy Bias 0 h: 0.13%
  Accuracy Bias 8 h: 2.18%
  Accuracy Bias 24 h: 0.09%
  Accuracy Bias Autosampler (4 °C; 8 h): 0.30%
  Accuracy Bias Long-term (−70°C; 1 month): 2.18%
[2]; medium nominal conc. (rutin 3.50; quercetin glucoside, quercitrin, tiliroside 22.18; kaempferol 2.24; m-HPAA, p-HPAA, DOPAC 7.81 µg/mL)
  Observed Conc. 0 h: 7.80 ± 0.01 µg/mL
[2]; [7]
  Observed Conc. 8 h: 31.53 ± 0.19 µg/mL
  Observed Conc. 24 h: 31.34 ± 0.07 µg/mL
  Observed Conc. Autosampler (4 °C; 8 h): 31.34 ± 0.07 µg/mL
  Observed Conc. Long-term (−70 °C; 1 month): 31.20 ± 0.19 µg/mL
[2]; [8]
  Observed Conc. 8 h: 1.91 ± 0.03 µg/mL
  Observed Conc. 24 h: 1.90 ± 0.04 µg/mL
  Observed Conc. Autosampler (4 °C; 8 h): 1.93 ± 0.04 µg/mL
  Observed Conc. Long-term (−70 °C; 1 month): 1.92 ± 0.03 µg/mL
[2]; [9]
  Observed Conc. 8 h: 7.98 ± 0.12 µg/mL
  Observed Conc. 24 h: 7.82 ± 0.01 µg/mL
  Observed Conc. Autosampler (4 °C; 8 h): 7.82 ± 0.01 µg/mL
  Observed Conc. Long-term (−70 °C; 1 month): 7.80 ± 0.12 µg/mL
[3]; 5 min after single oral dose of 200 mg/kg of the anxiolytic fraction, ND = not detected
  concentration at 5 min: 4670 ± 270 ng/mL
[3]; 10 min after single oral dose of 200 mg/kg of the anxiolytic fraction
  concentration at 10 min: 5060 ± 220 ng/mL
[3]; 15 min after single oral dose of 200 mg/kg of the anxiolytic fraction
  concentration at 15 min: 4750 ± 290 ng/mL
[3]; 30 min after single oral dose of 200 mg/kg of the anxiolytic fraction
  concentration at 30 min: 4520 ± 280 ng/mL
[3]; 60 min after single oral dose of 200 mg/kg of the anxiolytic fraction
  concentration at 60 min: 4290 ± 130 ng/mL
[3]; 120 min after single oral dose of 200 mg/kg of the anxiolytic fraction
  concentration at 120 min: 4170 ± 330 ng/mL
[3]; 240 min after single oral dose of 200 mg/kg of the anxiolytic fraction
  concentration at 240 min: 4110 ± 230 ng/mL
[3]; 480 min after single oral dose of 200 mg/kg of the anxiolytic fraction
  concentration at 480 min: 4040 ± 250 ng/mL
[3]; 720 min after single oral dose of 200 mg/kg of the anxiolytic fraction
  concentration at 720 min: 3940 ± 190 ng/mL
[3]; 1440 min after single oral dose of 200 mg/kg of the anxiolytic fraction
  concentration at 1440 min: 3790 ± 280 ng/mL
